ChEMBL document CHEMBL1154258, “Discovery and optimization of potent and selective functional antagonists of the human adenosine A2B receptor” (Bioorg Med Chem Lett, 2009)

Legend:
Adenosine receptor A2b = target: T1, Adenosine receptor A2b (Homo sapiens, UniProt P29275); assay: Antagonist activity at human adenosine A2B receptor expressed in CHOK1 cells assessed as inhibition of calcium mobilization by FLIPR assay; format: functional, cell-based, CHO-K1
T1 sequence (P29275 whole entry): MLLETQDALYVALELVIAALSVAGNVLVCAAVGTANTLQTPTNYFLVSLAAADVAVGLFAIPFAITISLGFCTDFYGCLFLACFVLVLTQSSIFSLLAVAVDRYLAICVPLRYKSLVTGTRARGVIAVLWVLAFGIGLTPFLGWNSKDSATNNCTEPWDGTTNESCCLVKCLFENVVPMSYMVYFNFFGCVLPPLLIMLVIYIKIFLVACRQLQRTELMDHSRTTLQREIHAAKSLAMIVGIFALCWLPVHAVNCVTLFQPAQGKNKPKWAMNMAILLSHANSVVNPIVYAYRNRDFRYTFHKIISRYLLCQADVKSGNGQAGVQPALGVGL

Adenosine receptor A2a = Adenosine receptor A2a (Homo sapiens, UniProt P29274); assay: Antagonist activity at human adenosine A2A receptor expressed in CHOK1 cells assessed as inhibition of calcium mobilization by FLIPR assay; format: functional, cell-based, CHO-K1
Chain of Adenosine receptor A2a (P29274 whole entry): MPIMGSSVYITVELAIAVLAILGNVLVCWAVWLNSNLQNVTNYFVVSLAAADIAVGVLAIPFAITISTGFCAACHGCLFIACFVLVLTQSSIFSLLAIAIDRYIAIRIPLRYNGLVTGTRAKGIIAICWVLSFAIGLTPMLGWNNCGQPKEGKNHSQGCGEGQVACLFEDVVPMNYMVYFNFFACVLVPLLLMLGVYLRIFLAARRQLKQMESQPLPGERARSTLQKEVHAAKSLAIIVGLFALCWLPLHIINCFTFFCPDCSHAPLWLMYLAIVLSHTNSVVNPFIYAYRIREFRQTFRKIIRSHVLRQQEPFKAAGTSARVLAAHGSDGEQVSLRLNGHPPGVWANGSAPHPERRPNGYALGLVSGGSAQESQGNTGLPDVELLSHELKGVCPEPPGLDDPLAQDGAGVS

[1] = Half life in po dosed rat; format: ADME, organism-based; details: in vivo
Rattus norvegicus = assay: Volume of distribution in po dosed rat; format: ADME, organism-based; details: in vivo
Plasma = assay: Clearance in human plasma
[2] = Oral bioavailability in rat; format: ADME, organism-based; details: in vivo
[3] = target: Voltage-gated inwardly rectifying potassium channel KCNH2 (Homo sapiens, UniProt Q12809); assay: Inhibition of human ERG at 30 uM by patch clamp method
Chain of Voltage-gated inwardly rectifying potassium channel KCNH2 (Q12809 whole entry): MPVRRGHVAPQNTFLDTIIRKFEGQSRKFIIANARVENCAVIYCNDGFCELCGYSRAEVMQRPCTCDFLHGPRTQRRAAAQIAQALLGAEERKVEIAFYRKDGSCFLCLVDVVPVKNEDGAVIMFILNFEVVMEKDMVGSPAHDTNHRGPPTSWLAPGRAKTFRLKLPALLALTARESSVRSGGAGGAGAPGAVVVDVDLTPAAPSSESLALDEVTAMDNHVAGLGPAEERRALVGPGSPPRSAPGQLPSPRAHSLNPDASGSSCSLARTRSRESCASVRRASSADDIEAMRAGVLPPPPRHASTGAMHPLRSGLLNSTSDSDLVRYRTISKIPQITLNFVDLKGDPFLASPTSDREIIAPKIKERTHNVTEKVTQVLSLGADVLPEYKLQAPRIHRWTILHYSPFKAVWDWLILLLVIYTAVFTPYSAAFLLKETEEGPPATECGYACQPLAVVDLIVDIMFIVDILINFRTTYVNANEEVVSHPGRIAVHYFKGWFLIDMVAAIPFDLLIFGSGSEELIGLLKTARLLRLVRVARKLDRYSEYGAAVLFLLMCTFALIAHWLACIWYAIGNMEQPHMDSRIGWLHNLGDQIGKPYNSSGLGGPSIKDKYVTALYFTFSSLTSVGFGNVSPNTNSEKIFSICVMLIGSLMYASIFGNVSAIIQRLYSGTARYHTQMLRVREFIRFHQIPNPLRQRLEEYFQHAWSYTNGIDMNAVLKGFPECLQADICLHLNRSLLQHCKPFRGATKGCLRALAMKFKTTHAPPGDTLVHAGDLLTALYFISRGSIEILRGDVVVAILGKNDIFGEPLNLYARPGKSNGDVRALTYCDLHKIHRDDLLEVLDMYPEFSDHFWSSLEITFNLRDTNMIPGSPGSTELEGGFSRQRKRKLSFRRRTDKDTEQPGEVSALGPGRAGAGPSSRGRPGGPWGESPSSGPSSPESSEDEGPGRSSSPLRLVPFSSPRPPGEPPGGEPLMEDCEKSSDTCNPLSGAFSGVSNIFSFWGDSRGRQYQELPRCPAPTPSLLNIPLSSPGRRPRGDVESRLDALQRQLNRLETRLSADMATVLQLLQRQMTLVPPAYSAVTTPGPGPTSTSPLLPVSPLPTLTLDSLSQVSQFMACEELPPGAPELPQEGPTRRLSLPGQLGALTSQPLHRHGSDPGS

[4] = Clearance in po dosed rat; format: ADME, organism-based; details: in vivo
Homo sapiens = species on record: Homo sapiens; assay: Protein binding in human plasma; details: read-out: PPB (converted)
[5] = Permeability across human Caco-2 cells; format: ADME, cell-based; details: read-out: permeability

O=C(NC1CC1)c1nc(NCc2cccnc2)nc2ccsc12
IC50 (Adenosine receptor A2b): 256 nM | IC50 (Adenosine receptor A2a): 710 nM

CC(C)NC(=O)c1nc(NCc2cccnc2)nc2ccsc12
IC50 (Adenosine receptor A2b): 309 nM | IC50 (Adenosine receptor A2a): 2610 nM

Cc1nc(C(=O)c2ccc(C)s2)c2sccc2n1
IC50 (Adenosine receptor A2b): > 10000 nM | IC50 (Adenosine receptor A2a): 7850 nM

CCc1nc(C(=O)c2ccc(C)s2)c2sccc2n1
IC50 (Adenosine receptor A2b): 3670 nM | IC50 (Adenosine receptor A2a): 3850 nM

Cc1ccc(C(=O)c2nc(N)nc3ccsc23)s1
IC50 (Adenosine receptor A2b): 758 nM | IC50 (Adenosine receptor A2a): 220 nM

CCNc1nc(C(=O)c2ccc(C)s2)c2sccc2n1
IC50 (Adenosine receptor A2b): 1260 nM | IC50 (Adenosine receptor A2a): 126 nM

Cc1ccc(C(=O)c2nc(NCc3ccncn3)nc3ccsc23)s1
IC50 (Adenosine receptor A2b): 92 nM | IC50 (Adenosine receptor A2a): 116 nM

Cc1ccc(C(=O)c2nc(NC(C)c3ccccn3)nc3ccsc23)s1 (stereo not drawn)
IC50 (Adenosine receptor A2b): 19 nM | IC50 (Adenosine receptor A2a): 118 nM

CNc1cc2nc(NCc3cccnc3)nc(C(=O)c3cccs3)c2s1
IC50 (Adenosine receptor A2b): 3.5 nM | IC50 (Adenosine receptor A2a): 965 nM | half-life [1]: 0.93 h | Vd (Rattus norvegicus): 2.2 L/kg | CL (Plasma): 28.3 mL/min/kg | bioavailability [2]: 2%

Cc1ccc(C(=O)c2nc(NCC3CCCCC3)nc3ccsc23)s1
IC50 (Adenosine receptor A2b): > 10000 nM | IC50 (Adenosine receptor A2a): > 10000 nM

Cc1ccc(C(=O)c2nc(NCc3ccccc3)nc3ccsc23)s1
IC50 (Adenosine receptor A2b): 5580 nM | IC50 (Adenosine receptor A2a): 7150 nM

Cc1ccc(C(=O)c2nc(NC(=O)c3cccnc3)nc3ccsc23)s1
IC50 (Adenosine receptor A2b): 287 nM | IC50 (Adenosine receptor A2a): 161 nM

O=C(c1nc(NCc2cccnc2)nc2ccsc12)N1CCCC1
IC50 (Adenosine receptor A2b): 189 nM | IC50 (Adenosine receptor A2a): 6140 nM

Cc1ccc(C(=O)c2nc(NCCc3ccccn3)nc3ccsc23)s1
IC50 (Adenosine receptor A2b): 944 nM | IC50 (Adenosine receptor A2a): 351 nM

Cc1ccc(C(=O)c2nc(NCCc3cccnc3)nc3ccsc23)s1
IC50 (Adenosine receptor A2b): 450 nM | IC50 (Adenosine receptor A2a): 177 nM

Cc1ccc(C(=O)c2nc(N(C)Cc3cccnc3)nc3ccsc23)s1
IC50 (Adenosine receptor A2b): 4140 nM | IC50 (Adenosine receptor A2a): 2270 nM

Cc1ccc(C(=O)c2nc(NC(C)c3ccccc3)nc3ccsc23)s1 (stereo not drawn)
IC50 (Adenosine receptor A2b): 414 nM | IC50 (Adenosine receptor A2a): 1080 nM

Cc1ccc(C(=O)c2nc(NCc3ccccn3)nc3ccsc23)s1
IC50 (Adenosine receptor A2b): 43 nM | IC50 (Adenosine receptor A2a): 186 nM

Cc1ccc(C(=O)c2nc(NCc3cccnc3)nc3ccsc23)s1
IC50 (Adenosine receptor A2b): 55 nM | IC50 (Adenosine receptor A2a): 990 nM

O=C(c1nccs1)c1nc(NCc2cccnc2)nc2ccsc12
IC50 (Adenosine receptor A2b): 176 nM | IC50 (Adenosine receptor A2a): 732 nM

O=C(c1cncs1)c1nc(NCc2cccnc2)nc2ccsc12
IC50 (Adenosine receptor A2b): 148 nM | IC50 (Adenosine receptor A2a): 1720 nM

Cc1ccc(C(=O)c2ncnc3ccsc23)s1
IC50 (Adenosine receptor A2b): 5380 nM | IC50 (Adenosine receptor A2a): 6690 nM

Cc1ccc(C(=O)c2nc(NC(C)c3cccnc3)nc3ccsc23)s1 (stereo not drawn)
IC50 (Adenosine receptor A2b): 17 nM | IC50 (Adenosine receptor A2a): 99 nM

O=C(c1ccc(Cl)s1)c1nc(NCc2cccnc2)nc2ccsc12
IC50 (Adenosine receptor A2b): 487 nM | IC50 (Adenosine receptor A2a): 1540 nM

Cc1ccc(C(=O)c2nc(NCc3cccnc3)nc3ccsc23)o1
IC50 (Adenosine receptor A2b): 468 nM | IC50 (Adenosine receptor A2a): 1250 nM

O=C(c1cccs1)c1nc(NCc2cccnc2)nc2ccsc12
IC50 (Adenosine receptor A2b): 18 nM | IC50 (Adenosine receptor A2a): 51 nM

O=C(c1ccsc1)c1nc(NCc2cccnc2)nc2ccsc12
IC50 (Adenosine receptor A2b): 148 nM | IC50 (Adenosine receptor A2a): 405 nM

O=C(c1ccccc1)c1nc(NCc2cccnc2)nc2ccsc12
IC50 (Adenosine receptor A2b): 511 nM | IC50 (Adenosine receptor A2a): 1620 nM

Cc1ccc(C(=O)c2nc(NCc3cccnc3)nc3ccsc23)cc1
IC50 (Adenosine receptor A2b): 215 nM | IC50 (Adenosine receptor A2a): 442 nM

COc1ccc(C(=O)c2nc(NCc3cccnc3)nc3ccsc23)cc1
IC50 (Adenosine receptor A2b): 1300 nM | IC50 (Adenosine receptor A2a): 637 nM

C[C@@H](Nc1nc(C(=O)N2CCCC2)c2sccc2n1)c1cccnc1
IC50 (Adenosine receptor A2b): 3070 nM | IC50 (Adenosine receptor A2a): 6760 nM

C[C@H](Nc1nc(C(=O)N2CCCC2)c2sccc2n1)c1cccnc1
inhibition (INH) [3]: Not Active | IC50 (Adenosine receptor A2b): 18 nM | IC50 (Adenosine receptor A2a): 468 nM | CL/F [4]: 43.3 mL/min/kg | half-life [1]: 2.3 h | Vd (Rattus norvegicus): 3.9 L/kg | fraction unbound (Homo sapiens): 0.15 | bioavailability [2]: 84% | Papp [5]: 33 ×10⁻⁶ cm/s

O=C(c1ccncc1)c1nc(NCc2cccnc2)nc2ccsc12
IC50 (Adenosine receptor A2b): 869 nM | IC50 (Adenosine receptor A2a): 1940 nM

O=C(c1cccs1)c1nc(NCc2cccnc2)nc2cc(Cl)sc12
IC50 (Adenosine receptor A2b): 16 nM | IC50 (Adenosine receptor A2a): 62 nM

Nc1cc2nc(NCc3cccnc3)nc(C(=O)c3cccs3)c2s1
IC50 (Adenosine receptor A2b): 32 nM | IC50 (Adenosine receptor A2a): > 10000 nM

CCNc1cc2nc(NCc3cccnc3)nc(C(=O)c3cccs3)c2s1
IC50 (Adenosine receptor A2b): 19 nM | IC50 (Adenosine receptor A2a): 2490 nM

CN(C)c1cc2nc(NCc3cccnc3)nc(C(=O)c3cccs3)c2s1
IC50 (Adenosine receptor A2b): 39 nM | IC50 (Adenosine receptor A2a): 1420 nM

CNC(=O)c1nc(NCc2cccnc2)nc2ccsc12
IC50 (Adenosine receptor A2b): 495 nM

CCNC(=O)c1nc(NCc2cccnc2)nc2ccsc12
IC50 (Adenosine receptor A2b): 120 nM | IC50 (Adenosine receptor A2a): 2520 nM

O=C(c1cccnc1)c1nc(NCc2cccnc2)nc2ccsc12
IC50 (Adenosine receptor A2b): 109 nM | IC50 (Adenosine receptor A2a): 1170 nM

O=C(NC1CCCCC1)c1nc(NCc2cccnc2)nc2ccsc12
IC50 (Adenosine receptor A2b): 571 nM

CC(Nc1nc(C(=O)N2CCCC2)c2sccc2n1)c1cccnc1 (racemic)
IC50 (Adenosine receptor A2b): 13 nM | IC50 (Adenosine receptor A2a): 2350 nM
